System: yeast Topo I
Assay: Toxicity in yeast overexpressing yeast Topo I (yTOP1) or ytop1-vac mutant
Format: cell-based
Text: The strains are derived from the A364a genetic background, with the exception of BY4705, which is derived from the S288C background. Gene disruptions were generated by PCR fragment directed replacement (Baudin, et al., Nucleic Acids Research 21: 3329–30 (1993), Guldener, et al., Nucleic Acids Research 24: 2519–24 (1996)). Yeast overexpressing topoisomerase II was constructed by a PCR fragment directed promoter replacement of the topoisomerase II promoter with the yeast GPD promoter flanked upstream by the URA3 marker. All strains (except BY4705) bear the pleitropic drug sensitizing mutations erg6, pdr1, and pdr3 (Balzi, et al., Journal of Bioenergetics & Biomembranes 27: 71–6 (1995), Delaveau, et al, Molecular & General Genetics 244: 501–11 (1994), Gaber, et al., Molecular & Cellular Biology 9: 3447–56 (1989), Saunders, et al., Canadian Journal of Genetics & Cytology, 24: 493–503 (1982). Subik, et al, Current Genetics 10: 665–70 (1986)). The haploid yeast strain BY4705 (Brachmann, et al., Yeast 14: 115–32 (1998)) was used in the experiments described in FIG. 5. Plasmids expressing yeast or human topoisomerase I genes under the GAL promoter (Knab, et al., Journal of Biological Chemistry 268: 22322–30 (1993). Knab, et al., Journal of Biological Chemistry 270: 6141–8 (1995)) were transformed into BY4705 using standard procedures.
Yeast toxicity assays were performed essentially as follows: Exponentially growing cultures of the appropriate strains were diluted in synthetic complete media to a concentration of 7.4×10^4 cells/mL, and aliquots (135 μL) were transferred to each well of clear flat-bottomed 96 well plates. Compounds were added in duplicate or triplicate as 15 μL of the appropriate dilution in 5% DMSO. A 15 μL portion of 5% DMSO was added to control wells. […] Cell growth (OD660) in treated wells was plotted as a percentage of the growth in at least four averaged solvent control wells for the same strain. Camptothecin sodium salt (camptothecin Na) was the agent used in all yeast assays as standard.
In this regard, the sensitivity of yeast strains overexpressing either human or yeast topoisomerase I genes (hTOP1 or yTOP1, respectively) under the control of the inducible GAL promoter (see, for example, Knab, et al., Journal of Biological Chemistry 268: 22322–30 (1993); and Knab, et al., Journal of Biological Chemistry 270: 6141–8 (1995)) were used. Additionally, the sensitivity of yeast overexpressing the Topo I-VAC mutant enzyme, containing two amino acid substitutions (htop1-vac and ytop1-vac) that render topoisomerase I insensitive to the action of camptothecin were also examined (see, for example, Knab, et al., Journal of Biological Chemistry 268: 22322–30 (1993); and Knab, et al., Journal of Biological Chemistry 270: 6141–8 (1995)).

Question: How did the “toxicity in yeast overexpressing yTOP1-vac compared to vector control, cell survival by colony formation” value (colony formation after treatment) turn out when `O=c1c(Cl)c(Cl)cnn1CCCl` [compound IIa] was run?
Answer: is accentuated

Question: What about the “effect of ytop1-vac (camptothecin-resistant mutant) overexpression on toxicity” value (relative OD660) of the same molecule?
Answer: effective with both yTOP1 and ytop1-vac
